Among the data in patent US7906655B2, “Hepatitis C virus inhibitors” (Bristol-Myers Squibb Company, priority 2008, dated 2011) are EC50 values, retold here.

The term EC50 denotes the concentration at which the effect is half-maximal.

One test relates to HCV 1b genotype. Put plainly: HCV Replicon assay (HCV-neo replicon cells, wild-type). The conditions noted are these: HCV 1b genotype replicon; class symbols. The format is cell-based. In short, it runs like this: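 Inhibition was measured in HCV-neo (genotype 1b) replicon cells. Some assay versions used luciferase reporters.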
With `C[C@H](NC(=O)[C@H](O)c1ccccc1)c1nc2cc(C#Cc3ccc4[nH]c([C@H](C)NC(=O)[C@H](O)c5ccccc5)nc4c3)ccc2[nH]1` [Example M27], the EC50 was below 4.57 nM.
Same read-out and setting: the result for `COC(=O)N[C@@H](C(=O)N1C2C[C@@H]2C[C@H]1c1nc2cc(-c3ccc(-c4ccc5[nH]c([C@@H]6C[C@H]7CC7N6C(=O)[C@H](NC(=O)OC)c6ccccc6)nc5c4)cc3)ccc2[nH]1)c1ccccc1` (single isomer, unassigned) [Example M46.2] reads below 4.57 nM; that for `CC(=O)N1CCC[C@H]1c1nc2ccc(C#Cc3ccc4[nH]c([C@@H]5CCCN5C(=O)Cc5ccccn5)nc4c3)cc2[nH]1` [Example M54.20, 5-((2-((2S)-1-acetyl-2-pyrrolidinyl)-1H-benzimidazol-6-yl)ethynyl)-2-((2S)-1-(2-pyridinylacetyl)-2-pyrrolidinyl)-1H-benzimidazole], 4.57 to 99 nM.
Take `CSCC[C@H](NC(=O)OCc1ccccc1)c1nc2cc(CCc3ccc4nc([C@H](CCSC)NC(=O)OCc5ccccc5)[nH]c4c3)ccc2[nH]1` [OL4, benzyl ((1S)-1-(5-(2-(2-((1S)-1-(((benzyloxy)carbonyl)amino)-3-(methylsulfanyl)propyl)-1H-benzimidazol-6-yl)ethyl)-1H-benzimidazol-2-yl)-3-(methylsulfanyl)propyl) carbamate]: the EC50 lay within 4.57 to 99 nM.
`C[C@H](NC(=O)[C@@](C)(O)c1ccccc1)c1nc2cc(C#Cc3ccc4[nH]c([C@H](C)NC(=O)[C@@](C)(O)c5ccccc5)nc4c3)ccc2[nH]1` [Example M28]: the EC50 is below 4.57 nM.

Still in this test, the particulars now being: Hepatitis C virus, HCV 1b genotype replicon; class symbols.
As for `COC(=O)N[C@@H](C)C(=O)N1CCC[C@H]1c1nc2cc(C#Cc3ccc4[nH]c([C@@H]5CCCN5C(=O)[C@H](C)NC(=O)OC)nc4c3)ccc2[nH]1` [Example M25, methyl ((1S)-2-((2S)-2-(5-((2-((2S)-1-(N-(methoxycarbonyl)-L-alanyl)-2-pyrrolidinyl)-1H-benzimidazol-5-yl)ethynyl)-1H-benzimidazol-2-yl)-1-pyrrolidinyl)-1-methyl-2-oxoethyl)carbamate], the EC50 fell in the range of 4.57 to 99 nM.
For `O=C([C@H](O)c1ccccc1)N1CCC[C@H]1c1nc2cc(C#Cc3ccc4[nH]c([C@@H]5CCCN5C(=O)[C@H](O)c5ccccc5)nc4c3)ccc2[nH]1` [Example M15, (1R,1′R)-2,2′-(1,2-ethynediylbis(1H-benzimidazole-5,2-diyl(2S)-2,1-pyrrolidinediyl))bis(2-oxo-1-phenylethanol)], the half-maximal effective concentration (EC50) is below 4.57 nM.
On the same count and under the same terms, the result for `CCCOc1ccccc1C(=O)N1CCC[C@H]1c1nc2ccc(C#Cc3ccc4[nH]c([C@@H]5CCCN5C(=O)[C@H]5CCCO5)nc4c3)cc2[nH]1` [Example M54.12, 5-((2-((2S)-1-(2-propoxybenzoyl)-2-pyrrolidinyl)-1H-benzimidazol-6-yl)ethynyl)-2-((2S)-1-((2R)-tetrahydro-2-furanylcarbonyl)-2-pyrrolidinyl)-1H-benzimidazole] reads 100 to 999 nM; that for `COc1cccc(CC(=O)N2CCC[C@H]2c2nc3cc(C#Cc4ccc5nc([C@@H]6CCCN6C(C)=O)[nH]c5c4)ccc3[nH]2)c1` [Example M54.17, 5-((2-((2S)-1-acetyl-2-pyrrolidinyl)-1H-benzimidazol-6-yl)ethynyl)-2-((2S)-1-((3-methoxyphenyl)acetyl)-2-pyrrolidinyl)-1H-benzimidazole], 4.57 to 99 nM; that for `O=C(OCc1ccccc1)N1C[C@H](O)C[C@H]1c1nc2cc(C#Cc3ccc4[nH]c([C@@H]5C[C@@H](O)CN5C(=O)OCc5ccccc5)nc4c3)ccc2[nH]1` [Example F11], below 4.57 nM.
For `CC[C@H](NC(=O)OCc1ccccc1)c1nc2cc(CCc3ccc4nc([C@H](CC)NC(=O)OCc5ccccc5)[nH]c4c3)ccc2[nH]1` [OL7, benzyl ((1S)-1-(5-(2-(2-((1S)-1-(((benzyloxy)carbonyl)amino)propyl)-1H-benzimidazol-6-yl)ethyl)-1H-benzimidazol-2-yl)propyl)carbamate], the EC50 fell in the range of 4.57 to 99 nM.
For the molecule `CC(C)(C)O[C@@H]1C[C@@H](c2nc3cc(C#Cc4ccc5nc([C@@H]6C[C@@H](OC(C)(C)C)CN6C(=O)OCc6ccccc6)[nH]c5c4)ccc3[nH]2)N(C(=O)OCc2ccccc2)C1` [Example F10, benzyl (2S,4R)-2-(5-((2-((2S,4R)-1-((benzyloxy)carbonyl)-4-tert-butoxy-2-pyrrolidinyl)-1H-benzimidazol-6-yl)ethynyl)-1H-benzimidazol-2-yl)-4-tert-butoxy-1-pyrrolidinecarboxylate], the EC50 was 4.57 to 99 nM.
Take `O=C(c1cccs1)N1CCC[C@H]1c1nc2cc(CCc3ccc4[nH]c([C@@H]5CCCN5C(=O)c5cccs5)nc4c3)ccc2[nH]1` [Example M45.1, 5,5′-(1,2-ethanediyl)bis(2-((2S)-1-(2-thienylcarbonyl)-2-pyrrolidinyl)-1H-benzimidazole)]: the EC50 lay within 100 to 999 nM.
Same read-out and setting: the same measure for `CC(=O)N[C@@H](C(=O)N1CCC[C@H]1c1nc2cc(-c3ccc4nc([C@@H]5CCCN5C(=O)[C@H](NC(C)=O)c5ccccc5)[nH]c4c3)ccc2[nH]1)c1ccccc1` [Example F7, N,N′-(1H,1′H-5,5′-bibenzimidazole-2,2′-diylbis((2S)-2,1-pyrrolidinediyl((1R)-2-oxo-1-phenyl-2,1-ethanediyl)))diacetamide]: 4.57 to 99 nM; for `COC(=O)N[C@@H](C(=O)N1CCC[C@H]1c1nc2cc(-c3cnc(-c4cccc5[nH]c([C@@H]6CCCN6C(=O)[C@H](NC(=O)OC)c6ccccc6)nc45)o3)ccc2[nH]1)c1ccccc1` [Example J6, Methyl((1R)-2-((2S)-2-(4-(5-(2-((2S)-1-((2R)-2-((methoxycarbonyl)amino)-2-phenylacetyl)-2-pyrrolidinyl)-1H-benzimidazol-5-yl)-1,3-oxazol-2-yl)-1H-benzimidazol-2-yl)-1-pyrrolidinyl)-2-oxo-1-phenylethyl)carbamate]: below 4.57 nM; for `CC(=O)N[C@H](C(=O)N1CCC[C@H]1c1nc2cc(-c3cnc(-c4cccc5[nH]c([C@@H]6CCCN6C(=O)[C@@H](c6ccccc6)N(C)C)nc45)o3)ccc2[nH]1)c1ccccc1` [Example J11.2, N-((1S)-2-((2S)-2-(5-(2-(2-((2S)-1-((2R)-2-(dimethyl-amino)-2-phenylacetyl)-2-pyrrolidinyl)-1H-benzimidazol-4-yl)-1,3-oxazol-5-yl)-1H-benzimidazol-2-yl)-1-pyrrolidinyl)-2-oxo-1-phenylethyl) acetamide]: below 4.57 nM.
As to `CC(=O)N1CCN(C(=O)OCc2ccccc2)[C@H](c2nc3cc(CCc4ccc5[nH]c([C@@H]6CN(C(C)=O)CCN6C(=O)OCc6ccccc6)nc5c4)ccc3[nH]2)C1` (stereo in doubt) [OL11, benzyl 4-acetyl-2-(5-(2-(2-(4-acetyl-1-((benzyloxy)carbonyl)-2-piperazinyl)-1H-benzimidazol-6-yl)ethyl)-1H-benzimidazol-2-yl)-1-piperazinecarboxylate], the EC50 is 100 to 999 nM.
Still for that read-out and setting: the result for `CC(C)(C)OC(=O)C[C@H](NC(=O)OCc1ccccc1)c1nc2cc(CCc3ccc4nc([C@H](CC(=O)OC(C)(C)C)NC(=O)OCc5ccccc5)[nH]c4c3)ccc2[nH]1` [OL9, tert-butyl (3S)-3-(((benzyloxy)carbonyl)amino)-3-(5-(2-(2-((1S)-1-(((benzyloxy)carbonyl)amino)-3-tert-butoxy-3-oxopropyl)-1H-benzimidazol-6-yl)ethyl)-1H-benzimidazol-2-yl)propanoate] reads 4.57 to 99 nM; that for `O=C(Cc1cccnc1)N1CCC[C@H]1c1nc2cc(C#Cc3ccc4[nH]c([C@@H]5CCCN5C(=O)Cc5cccnc5)nc4c3)ccc2[nH]1` [Example M11, 5,5′-(1,2-ethynediyl)bis(2-((2S)-1-(3-pyridinylacetyl)-2-pyrrolidinyl)-1H-benzimidazole)], below 4.57 nM.

The same test, now with this note: Hepatitis C virus, HCV 1b genotype replicon; numeric values.
On to `O=C([C@H]1CCCO1)N1CCC[C@H]1c1nc2cc(C#Cc3ccc4[nH]c([C@@H]5CCCN5C(=O)[C@H]5CCCO5)nc4c3)ccc2[nH]1` [Example M5, 5,5′-(1,2-ethynediyl)bis(2-((2S)-1-((2R)-tetrahydro-2-furanylcarbonyl)-2-pyrrolidinyl)-1H-benzimidazole)], for which the EC50 was determined as 10 nM.
As for `CCO[C@@H]1C[C@@H](c2nc3cc(C#Cc4ccc5nc([C@@H]6C[C@@H](OCC)CN6C(=O)OCc6ccccc6)[nH]c5c4)ccc3[nH]2)N(C(=O)OCc2ccccc2)C1` [Example F9, benzyl (2S,4R)-2-(5-((2-((2S,4R)-1-((benzyloxy)carbonyl)-4-ethoxy-2-pyrrolidinyl)-1H-benzimidazol-6-yl)ethynyl)-1H-benzimidazol-2-yl)-4-ethoxy-1-pyrrolidinecarboxylate], the half-maximal effective concentration (EC50) was 20 nM.
Take `COC(=O)N[C@@H](C(=O)N1CCC[C@H]1c1nc2c(-c3ncc(-c4ccc5[nH]c([C@@H]6CCCN6C(=O)[C@@H](c6ccccc6)N6CCN(C)CC6)nc5c4)o3)cccc2[nH]1)c1ccccc1` [Example J30, methyl ((1R)-2-((2S)-2-(4-(5-(2-((2S)-1-((2R)-2-(4-methyl-1-piperazinyl)-2-phenylacetyl)-2-pyrrolidinyl)-1H-benzimidazol-5-yl)-1,3-oxazol-2-yl)-1H-benzimidazol-2-yl)-1-pyrrolidinyl)-2-oxo-1-phenylethyl) carbamate]: the EC50 is 0.058 nM.
Still for that read-out and setting: the result for `COC(=O)N[C@H](C(=O)N1[C@@H]2C[C@@H]2C[C@H]1c1nc2ccc(-c3ccc(-c4ccc5nc([C@@H]6C[C@H]7C[C@H]7N6C(=O)[C@@H](NC(=O)OC)C(C)C)[nH]c5c4)cc3)cc2[nH]1)C(C)C` [Example M46, methyl((1S)-1-(((1R,3S,5R)-3-(6-(4-(2-((1R,3S,5R)-2-((2S)-2-((methoxycarbonyl)amino)-3-methylbutanoyl)-2-azabicyclo[3.1.0]hex-3-yl)-1H-benzimidazol-6-yl)phenyl)-1H-benzimidazol-2-yl)-2-azabicyclo[3.1.0]hex-2-yl)carbonyl)-2-methylpropyl)carbamate] reads 0.006 nM.
